In article PMC12548414 (Journal of Bacteriology, 2025):
≈ marks a conversion by molar mass, not a printed value.

Key:
[1] = tested on: T1, E. coli pLC1021 (luc-trpAt trans-translation reporter); design: species or system Escherichia coli pLC1021; luc-trpAt non-stop luciferase reporter; luminescence rises when trans-translation is inhibited; normalized to KKL-35 and DMSO; conditions: 2 h, 20 µM
T1 construct: pLC1021 luc-trpAt reporter strain
Protocol: The luciferase screen was performed as previously described ([16]). […] 48 µL of cells was transferred to white 96-well plates, and 2 µL DMSO or 20 µM compound, or 20 µM KKL-35 was added. Plates were sealed with adhesive film, vortexed gently to mix, and incubated at room temperature for 2 h. 50 µL Bright-Glo reagent (Promega, Madison, WI) was added to each well, and the plates were sealed with adhesive film, vortexed vigorously, and incubated for an additional 10 min at room temperature. Luminescence was measured at 560 nm using a SpectraMax i3 microplate reader and readings for each plate were normalized to the average of three KKL-35-treated wells (positive control) and three DMSO-treated wells (negative control) within the plate to correct for plate-to-plate and day-to-day variations. Results from at least two biological repeats were averaged, and GraphPad Prism was used to plot the data. We screened a library of 1,601 anti-tubercular small molecules for their ability to inhibit trans-translation using a luciferase reporter in Escherichia coli. In this luc-trpAt reporter, the firefly luciferase gene has a trpA transcriptional terminator before the stop codon, such that luciferase is translated from a non-stop mRNA ([16]). When trans-translation is active, the luciferase will be tagged and degraded, but when trans-translation is inhibited, active luciferase will accumulate, resulting in a luminescent signal when luciferin is added. Luciferase activity was measured after growth in the presence of compounds from the library at 20 µM, using the known trans-translation inhibitor KKL-35 as a positive control (Fig. 1A) ([16], [17]). Compounds with activity one standard deviation above the median were scored as positive (Fig. S1 and Table S1).

ribosomal protein bL12 [2] = biological target: T2, ribosomal protein bL12 (Escherichia coli, UniProt P0A7K2); assay: biochemical; type: binding
T2 construct: gene rplL

ribosomal protein bL12 [3] = biological target: T3, ribosomal protein bL12 (Mycobacterium tuberculosis, UniProt P9WHE3); assay: biochemical; type: binding
T3 construct: gene rplL; 6His-tagged M. tuberculosis bL12
T3 sequence (P9WHE3 1-130): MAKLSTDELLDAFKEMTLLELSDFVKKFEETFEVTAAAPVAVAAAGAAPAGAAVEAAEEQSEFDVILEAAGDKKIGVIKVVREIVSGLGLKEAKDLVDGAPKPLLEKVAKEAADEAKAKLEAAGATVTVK

M. tuberculosis = assay: microbe, parasite or virus in culture; design: species or system Mycobacterium tuberculosis H37Rv ΔRD1 ΔpanCD; conditions: Mycobacterium tuberculosis, 168 h, read-out: MIC
E. coli ΔtolC = tested on: T4, E. coli ΔtolC; assay: microbe, parasite or virus in culture; design: species or system Escherichia coli ΔtolC; broth microdilution MIC, lowest concentration with no visible growth; conditions: Escherichia coli, 20 h, read-out: MIC
T4 construct: ΔtolC

B. anthracis = assay: microbe, parasite or virus in culture; conditions: Bacillus anthracis, 20 h, read-out: MIC

T2 sequence (P0A7K2 2-121): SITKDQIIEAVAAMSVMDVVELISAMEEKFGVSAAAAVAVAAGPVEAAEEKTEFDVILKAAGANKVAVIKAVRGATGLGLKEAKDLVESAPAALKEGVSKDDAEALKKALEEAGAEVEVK

SMILES	% activation [1] [%]	also measured
c1cc2c(s1)CCOC21CCN(Cc2ccc3c(c2)OCCO3)CC1 [KKL-1815]	0	–
CC(C)[C@H]1OC(=O)[C@H](Cc2ccccc2)N(C)C(=O)[C@@H](C(C)C)OC(=O)[C@H](Cc2ccccc2)N(C)C(=O)[C@@H](C(C)C)OC(=O)[C@H](Cc2ccccc2)N(C)C1=O [KKL-0304]	0	–
O=C(NC12CC3CC(CC(C3)C1)C2)c1cc2cc(Cl)ccc2[nH]1 [KKL-1781]	0	–
Cc1cccc(-c2nc(Nc3ccncn3)c3sccc3n2)n1 [KKL-1695]	0	–
Cc1ccc2nc(C)c(C(=O)NCc3cccs3)n2c1 [KKL-1863]	4	–
CCc1ccc([C@@H]2C[C@H](C(F)(F)F)n3ncc(C(=O)NCc4ccc(OC)cc4)c3N2)cc1 [KKL-1692]	0	–
Cc1cccc(-c2nc(Nc3ccncn3)c3c(C)csc3n2)n1 [KKL-1712]	6	–
O=C(Nc1nc(NC(=O)c2ccco2)n(-c2ccccc2)n1)c1ccccc1 [KKL-1005, N-(5-benzamido-2-phenyl-1,2,4-triazol-3-yl)furan-2-carboxamide]	–	Kd (ribosomal protein bL12 [2]): 8 ± 2 µM; Kd (ribosomal protein bL12 [3]): 4 ± 0.2 µM; MIC (M. tuberculosis): 4.7 µg/mL (≈ 12.6 µM); MIC (E. coli ΔtolC): 9.3 µg/mL (≈ 24.9 µM); MIC (B. anthracis): 9.3 µg/mL (≈ 24.9 µM)
CNc1nc(SC)nc2ccccc12 [KKL-1869]	0	–
COc1ccc(CCNc2cc(-c3ccccc3)nc3ncnn23)cc1 [KKL-1831]	3	–
